# Test results: patent publication US20240299394A1, “TARGETED TREATMENT FOR SKIN FRAGILITY DISEASES” (University of Washington, priority 2023, published 2024)
# Tests used:
# ERK = ERK biosensor (ERK-KTR-mClover) live imaging; assay type: cell-based, human; conditions: Dab or Vem alone, 24 h, 1.2 mM calcium
# Experimental: For live imaging of the ERK biosensor, NHEKs were transduced with ERK-KTR-mClover (Addgene Cat. #59150). HEK293FT cells were grown in complete DMEM, then transfected with 4 μg pLenti-CMV-PuroDEST-ERK-KTR-mClover DNA plus 12 μl FuGENE 6 (Promega of Madison, WI, Cat. #E2691) in 800 μL of Opti-MEM (Thermo-Fisher Cat. #31985070), which was added to the cells and left overnight. Lentiviral supernatants were collected the next day and polybrene (Sigma Cat. #H9268) was added at a concentration of 4 μg/mL. M154 was removed from NHEKs and replaced with viral medium for 1 hour at 37° C. Cells were then washed in PBS and placed back in their normal medium and expanded in culture.
# ERK-KTR-mClover-transduced cells were seeded into 35 mm glass-bottom dishes in low calcium medium (0.31 mM) and grown to confluency. […] Using Fiji (Fiji software, https://github.com/fiji/fiji), the nuclear region was encircled with the polygon tool and the “Measure” function was used to calculate the mean fluorescence intensity; after using the “Cut” function to remove the nuclear region, then remaining cytoplasmic region was encircled with the polygon tool and the “Measure” function was used to calculate the mean fluorescence intensity. The ERK activity index was calculated as the ratio of the cytoplasmic integrated fluorescence intensity (active) to the nuclear integrated fluorescence intensity.
# NHEKs = assay: Immunofluorescence of plakoglobin / desmosomal protein localization; assay type: cell-based, human; conditions: B-RAF inhibitor alone, 24 hours in E-medium
# Experimental: Keratinocytes were grown to confluency in 35 mm glass-bottom cell culture dishes (MatTek of Ashland, MA, Cat. #P35G-1.5-20-C). For staining keratins and desmosomal proteins, cells were fixed in ice-cold 100% methanol at −20° C. for 2 minutes, allowed to dry, then re-hydrated in PBS. For staining other proteins, cells were fixed in 4% paraformaldehyde for 10 minutes at 37° C. Fixed cells were then incubated with blocking buffer [0.5% (w/v) bovine serum albumin (BSA, Sigma), 10% (w/v) normal goat serum (NGS, Sigma) in PBS] for 30 min at 37° C. Cells were then washed with PBS. Primary antibodies were diluted in 0.5% (w/v) BSA in PBS and incubated on the cells overnight at 4° C. Primary antibody dilutions were as follows: chicken anti-plakoglobin (1:1000). […]
# Images were acquired on a Hamamatsu ORCA-FusionBT sCMOS camera (Hamamatsu of Hamamatsu City, Japan) using a Yokogawa W1 spinning-disk confocal (SDC) system (Yokogawa of Musashino, Tokyo, Japan) on a Nikon Ti2 microscope (Nikon of Minato City, Tokyo, Japan). Samples were illuminated using 405, 488, 561, and 640 nm laser excitation lines and fluorescence was detected using a 60×1.2 numerical aperture (NA) water objective (Nikon) with standard emission filters.
# [1] = B-RAF inhibitor monotherapy for cancer (Carlos G, et al. 2015); cited from earlier work
smiles,measurement,setting,value
CC(C)(C)c1nc(-c2cccc(NS(=O)(=O)c3c(F)cccc3F)c2F)c(-c2ccnc(N)n2)s1 [dabrafenib],ERK activity (biosensor),ERK,induced ERK activation
same,localization of desmosomal proteins,NHEKs,induced mislocalization of desmosomal proteins
same,patients in whom GD was seen,[1],42.9%
